Tested on: SRE.L-firefly luciferase reporter (Rho/MKL1 pathway) in PC-3 prostate cancer cells
Experiment: SRE.L-luciferase reporter assay
Assay type: cell-based
Settings: 19 h, PC-3 cells transfected with Gα12Q231L, SRE.L and pRL-TK reporters; compound 19 hrs
Procedure: Seed PC-3 prostate cancer cells (40,000 cells/well) were grown in 96-well plates in 10% FBS containing DMEM medium. Cells were transiently transfected with the Ga12QL activator of the Rho/MKL1 pathway, along with the SRE.L-firefly luciferase reporter construct for 6 hours. Additionally, cells were co-transfected with the TK-Renilla luciferase reporter as an indicator of non-specific compound effects. Various concentrations of the compounds disclosed herein were added to the 96-well plates. Plates were incubated for 19 hours at 37° C. and 5% C02 in 0.5% FBS containing DMEM medium. Cells were lysed with IX Passive Lysis Buffer (Promega). Plates were incubated for 30 minutes at room temperature. Luminescence counts were read with a Victor2 (Perkin-Elmer) plate reader.
One hour prior to cell lysis for the dual luciferase assay, 10 μl: per well of WST1 reagent (Roche) was added to the 96-well plates. Plates were incubated for 1 hour at 37° C. and 5% CO2. Cell viability was measured by WST1 absorbance at 450 nm with a Victor2 (Perkin-Elmer) plate reader.
Biological activity of the compounds disclosed herein were assessed in the SRE.L luciferase reporter assay. PC-3 prostate cancer cells were co-transfected with 2 ng of the Gα12Q231L expression plasmid along with 50 ng of the SRE.L and 7 ng of the pRL-TK luciferase reporter plasmids, as described in the Materials and Methods section. Cells were treated with 0 (vehicle, DMSO alone), 1, 3, 10, 30, and 100 μM of a compound disclosed herein for 19 hrs after transfection before lysis. Luminescence was determined as described in the Materials and Methods section. Just before cell lysis, the viability of the cells was measured using the WST-1 cell proliferation reagent as described in the Materials and Methods section. Data are expressed as percentage of inhibition (DMSO alone=0%). The experiments were performed three separate times to achieve n=3 in triplicate.

Point of comparison: CCC(=O)N1CCN(C(=O)c2cccc(-c3ccco3)c2)CC1C(=O)Nc1ccc(Cl)cc1 (centres unmarked) [Example E-005, N-(4-chlorophenyl)-4-(3-(furan-2-yl)benzoyl)-1-propionylpiperazine-2-carboxamide], IC50 19 µM. Against it:
- CC(c1ccc(-n2cccn2)cc1)N1CCCC(C(=O)Nc2ccc(Cl)cc2)C1 (single isomer, unassigned) [Example E-102, 1-(1-(4-(1H-pyrazol-1-yl)phenyl)ethyl)-N-(4-chlorophenyl)piperidine-3-carboxamide] — 14-fold lower, 1.4 µM
- O=C(c1cccc(-c2ccco2)c1)N1CCCC(F)(C(=O)Nc2ccc(Cl)cc2)C1 (centres unmarked) [Example E-001, N-(4-chlorophenyl)-3-fluoro-1-(3-(furan-2-yl)benzoyl)piperidine-3-carboxamide] — 2.6-fold lower, 7.3 µM
- O=C(Nc1ccc(Cl)cc1)C1CCCN(C(=O)c2cccc(-c3ccco3)c2)C1 (centres unmarked) [Example E-002, N-(4-chlorophenyl)-1-(3-(furan-2-yl)benzoyl)piperidine-3-carboxamide] — 2.7-fold lower, 7.1 µM
- O=C(Nc1ccc(Cl)cc1)C1CCCN(C(=O)c2cccc(-c3ccc(Cl)o3)c2)C1 (centres unmarked) [Example E-003, 1-(3-(5-chlorofuran-2-yl)benzoyl)-N-(4-chlorophenyl)piperidine-3-carboxamide] — 1.6-fold lower, 12 µM
- O=C(Nc1ccc(Cl)cc1)C1CN(C(=O)c2cccc(-c3ccco3)c2)CCN1C(=O)OCc1ccccc1 (centres unmarked) [Example E-004, benzyl 2-((4-chlorophenyl)carbamoyl)-4-(3-(furan-2-yl)benzoyl)piperazine-1-carboxylate] — 11-fold lower, 1.8 µM
- CC(C)C(=O)N1CCN(C(=O)c2cccc(-c3ccco3)c2)CC1C(=O)Nc1ccc(Cl)cc1 (centres unmarked) [Example E-006, N-(4-chlorophen)-4-(3-(furan-2-yl)benzoyl)-1-isobutyrylpiperazine-2-carboxamide] — 1.6-fold lower, 12 µM
- COc1ccc(C(=O)N2CCN(C(=O)c3cccc(-c4ccco4)c3)CC2C(=O)Nc2ccc(Cl)cc2)cc1 (centres unmarked) [Example E-007, N-(4-chlorophenyl)-4-(3-(furan-2-yl)benzoyl)-1-(4-methoxybenzoyl)piperazine-2-carboxamide] — within 1.5-fold, 15 µM
- CC(=O)N1CCN(C(=O)c2cccc(-c3ccco3)c2)CC1C(=O)Nc1ccc(Cl)cc1 (centres unmarked) [Example E-008, 1-acetyl-N-(4-chlorophenyl)-4-(3-(furan-2-yl)benzoyl)piperazine-2-carboxamide] — 2.6-fold higher, 50 µM
- O=C(Nc1ccc(Cl)cc1)C1CN(C(=O)c2cccc(-c3ccco3)c2)CCN1C(=O)Nc1ccccc1 (centres unmarked) [Example E-009, N2-(4-chlorophenyl)-4-(3-(furan-2-yl)benzoyl)-N1-phenylpiperazine-1,2-dicarboxamide] — within 1.5-fold, 18 µM
- CC(C)NC(=O)N1CCN(C(=O)c2cccc(-c3ccco3)c2)CC1C(=O)Nc1ccc(Cl)cc1 (centres unmarked) [Example E-010, N2-(4-chlorophenyl)-4-(3-(furan-2-yl)benzoyl)-N1-isopropylpiperazine-1,2-dicarboxamide] — within 1.5-fold, 24 µM
- O=C(Nc1ccc(Cl)cc1)C1CN(C(=O)c2cccc(-c3ccco3)c2)CCN1C(=O)NC1CCCC1 (centres unmarked) [Example E-011, N2-(4-chlorophenyl)-N1-cyclopentyl-4-(3-(furan-2-yl)benzoyl)piperazine-1,2-dicarboxamide] — within 1.5-fold, 14 µM
- C=CCNC(=O)N1CCN(C(=O)c2cccc(-c3ccco3)c2)CC1C(=O)Nc1ccc(Cl)cc1 (centres unmarked) [Example E-012, N1-allyl-N2-(4-chlorophenyl)-4-(3-(furan-2-yl)benzoyl)piperazine-1,2-dicarboxamide] — within 1.5-fold, 25 µM
- CCCOC(=O)N1CCN(C(=O)c2cccc(-c3ccco3)c2)CC1C(=O)Nc1ccc(Cl)cc1 (centres unmarked) [Example E-013, propyl 2((4-chlorophenyl)carbamoyl)-4-(3-(furan-2-yl)benzoyl)piperazine-1-carboxylate] — within 1.5-fold, 18 µM
- CCOC(=O)N1CCN(C(=O)c2cccc(-c3ccco3)c2)CC1C(=O)Nc1ccc(Cl)cc1 (centres unmarked) [Example E-014, ethyl 2((4-chlorophenyl)carbamoyl)-4-(3-(furan-2-yl)benzoyl)piperazine-1-carboxylate] — within 1.5-fold, 16 µM
- O=C(Nc1ccc(Cl)cc1)C1CN(C(=O)c2cccc(-c3ccco3)c2)CCN1C(=O)Oc1ccccc1 (centres unmarked) [Example E-015, phenyl 2((4-chlorophenyl)carbamoyl)-4-(3-(furan-2-yl)benzoyl)piperazine-1-carboxylate] — within 1.5-fold, 26 µM
- COCCOC(=O)N1CCN(C(=O)c2cccc(-c3ccco3)c2)CC1C(=O)Nc1ccc(Cl)cc1 (centres unmarked) [Example E-016, 2-methoxyethyl 2((4-chlorophenyl)carbamoyl)-4-(3-(furan-2-yl)benzoyl)piperazine-1-carboxylate] — within 1.5-fold, 16 µM
- O=C(Nc1ccc(Cl)cc1)C1CN(C(=O)c2cccc(-c3ccco3)c2)CCN1Cc1ccccc1 (centres unmarked) [Example E-017, 1-benzyl-N-(4-chlorophenyl)-4-(3-(furan-2-yl)benzoyl)piperazine-2-carboxamide] — within 1.5-fold, 16 µM
- CN1CCN(C(=O)c2cccc(-c3ccco3)c2)CC1C(=O)Nc1ccc(Cl)cc1 (centres unmarked) [Example E-018, N-(4-chlorophenyl)-4-(3-(furan-2-yl)benzoyl)-1-methylpiperazine-2-carboxamide] — 2.2-fold lower, 8.7 µM
- O=C(Nc1ccc(Cl)cc1)C1CN(C(=O)c2cccc(-c3ccco3)c2)CC(F)(F)C1 (centres unmarked) [Example E-019, N-(4-chlorophenyl)-5,5-difluoro-1-(3-(furan-2-yl)benzoyl)piperidine-3-carboxamide] — 33-fold lower, 0.58 µM
- C=C1CC(C(=O)Nc2ccc(Cl)cc2)CN(C(=O)c2cccc(-c3ccco3)c2)C1 (centres unmarked) [Example E-020, N-(4-chlorophenyl)-1-(3-(furan-2-yl)benzoyl)-5-methylenepiperidine-3-carboxamide] — 10-fold lower, 1.9 µM
- COC1(OC)CC(C(=O)Nc2ccc(Cl)cc2)CN(C(=O)c2cccc(-c3ccco3)c2)C1 (centres unmarked) [Example E-021, N-(4-chlorophenyl)-1-(3-(furan-2-yl)benzoyl)-5,5-dimethoxypiperidine-3-carboxamide] — 4.3-fold lower, 4.4 µM
- O=C(Nc1ccc(Cl)cc1)C1CCCN(C(=O)c2cncc(-c3ccco3)c2)C1 (centres unmarked) [Example E-023, N-(4-chlorophenyl)-1-(5-(furan-2-yl)nicotinoyl)piperidine-3-carboxamide] — 3.9-fold lower, 4.9 µM
- O=C(Nc1ccc(Cl)cc1)C1CCCN(C(=O)c2cc(-c3ccco3)ccn2)C1 (centres unmarked) [Example E-024, N-(4-chlorophenyl)-1-(4-(furan-2-yl)picolinoyl)piperidine-3-carboxamide] — 4.4-fold lower, 4.3 µM
- O=C(Nc1ccc(Cl)cc1)C1CN(C(=O)c2cc(-c3ccco3)ccn2)CC(F)(F)C1 (centres unmarked) [Example E-025, N-(4-chlorophenyl)-5,5-difluoro-1-{[4-(furan-2-yl)pyridin-2-yl]carbonyl}piperidine-3-carboxamide] — 23-fold lower, 0.81 µM

Same assay, conditions: PC-3 cells transfected with Gα12Q231L, SRE.L and pRL-TK reporters; compound 19 hrs

Point of comparison: O=C(NC1CC(C(=O)Nc2ccc(Cl)cc2)CN(C(=O)c2cccc(-c3ccco3)c2)C1)c1ccccc1 (single isomer, unassigned) [Example E-054, 5-benzamido-N-(4-chlorophenyl)-1-(3-(furan-2-yl)benzoyl) piperidine-3-carboxamide], IC50 30 µM. Against it:
- COC1CC(C(=O)Nc2ccc(Cl)cc2)CN(C(=O)c2cccc(-c3ccco3)c2)C1 (single isomer, unassigned) [Example E-045, N-(4-chlorophenyl)-1-(3-(furan-2-yl)benzoyl)-5-methoxypiperidine-3-carboxamide] — 32-fold lower, 0.93 µM
- COC1CC(C(=O)Nc2ccc(Cl)cc2)CN(C(=O)c2cccc(-c3ccco3)c2)C1 (single isomer, unassigned) [Example E-046, N-(4-chlorophenyl)-1-(3-(furan-2-yl)benzoyl)-5-methoxypiperidine-3-carboxamide] — 13-fold lower, 2.3 µM
- O=C(NC1CC(C(=O)Nc2ccc(Cl)cc2)CN(C(=O)c2cccc(-c3ccco3)c2)C1)c1ccccc1 (single isomer, unassigned) [Example E-055, 5-benzamido-N-(4-chlorophenyl)-1-(3-(furan-2-yl)benzoyl) piperidine-3-carboxamide] — 14-fold lower, 2.2 µM
- CN(Cc1ccccc1)C1CC(C(=O)Nc2ccc(Cl)cc2)CN(C(=O)c2cccc(-c3ccco3)c2)C1 (single isomer, unassigned) [Example E-060, 5-(benzyl(methyl)amino)-N-(4-chlorophenyl)-1-(3-(furan-2-yl)benzoyl)piperidine-3-carboxamide] — 1.7-fold lower, 18 µM
- CN(Cc1ccccc1)C1CC(C(=O)Nc2ccc(Cl)cc2)CN(C(=O)c2cccc(-c3ccco3)c2)C1 (single isomer, unassigned) [Example E-061, 5-(benzyl(methyl)amino)-N-(4-chlorophenyl)-1-(3-(furan-2-yl)benzoyl)piperidine-3-carboxamide] — 16-fold lower, 1.9 µM
- CC(c1ccc(-n2cccn2)cc1)N1CCCC(C(=O)Nc2ccc(Cl)cc2)C1 (single isomer, unassigned) [Example E-103, 1-(1-(4-(1H-pyrazol-1-yl)phenyl)ethyl)-N-(4-chlorophenyl)piperidine-3-carboxamide] — 14-fold lower, 2.2 µM

From patent US10662183B2, “Inhibitors of myocardin-related transcription factor and serum response factor (MRTF/SRF)-mediated gene transcription and methods for use of the same” (THE REGENTS OF THE UNIVERSITY OF MICHIGAN, priority 2014, dated 2020)
